Results: patent US4882326A, “Piperidine compounds and pharmaceutical uses thereof” (Yoshitomi Pharmaceutical Industries, Ltd., priority 1987, dated 1989)
pIC50: −log10 of the molar value.

Legend:
[1] = target: T1, angiotensin I converting enzyme (Cavia porcellus, UniProt H0UWL7); assay: Inhibitory effect on angiotensin I-induced constriction in isolated guinea pig ileum (indirect inhibition of angiotensin I converting enzyme); type: cell-based; settings: angiotensin I 10^-8 M, 37° C.
T1 construct: isolated guinea pig ileum preparation; from tissue; host or cells: isolated guinea pig ileum
T1 sequence (H0UWL7 33-1302): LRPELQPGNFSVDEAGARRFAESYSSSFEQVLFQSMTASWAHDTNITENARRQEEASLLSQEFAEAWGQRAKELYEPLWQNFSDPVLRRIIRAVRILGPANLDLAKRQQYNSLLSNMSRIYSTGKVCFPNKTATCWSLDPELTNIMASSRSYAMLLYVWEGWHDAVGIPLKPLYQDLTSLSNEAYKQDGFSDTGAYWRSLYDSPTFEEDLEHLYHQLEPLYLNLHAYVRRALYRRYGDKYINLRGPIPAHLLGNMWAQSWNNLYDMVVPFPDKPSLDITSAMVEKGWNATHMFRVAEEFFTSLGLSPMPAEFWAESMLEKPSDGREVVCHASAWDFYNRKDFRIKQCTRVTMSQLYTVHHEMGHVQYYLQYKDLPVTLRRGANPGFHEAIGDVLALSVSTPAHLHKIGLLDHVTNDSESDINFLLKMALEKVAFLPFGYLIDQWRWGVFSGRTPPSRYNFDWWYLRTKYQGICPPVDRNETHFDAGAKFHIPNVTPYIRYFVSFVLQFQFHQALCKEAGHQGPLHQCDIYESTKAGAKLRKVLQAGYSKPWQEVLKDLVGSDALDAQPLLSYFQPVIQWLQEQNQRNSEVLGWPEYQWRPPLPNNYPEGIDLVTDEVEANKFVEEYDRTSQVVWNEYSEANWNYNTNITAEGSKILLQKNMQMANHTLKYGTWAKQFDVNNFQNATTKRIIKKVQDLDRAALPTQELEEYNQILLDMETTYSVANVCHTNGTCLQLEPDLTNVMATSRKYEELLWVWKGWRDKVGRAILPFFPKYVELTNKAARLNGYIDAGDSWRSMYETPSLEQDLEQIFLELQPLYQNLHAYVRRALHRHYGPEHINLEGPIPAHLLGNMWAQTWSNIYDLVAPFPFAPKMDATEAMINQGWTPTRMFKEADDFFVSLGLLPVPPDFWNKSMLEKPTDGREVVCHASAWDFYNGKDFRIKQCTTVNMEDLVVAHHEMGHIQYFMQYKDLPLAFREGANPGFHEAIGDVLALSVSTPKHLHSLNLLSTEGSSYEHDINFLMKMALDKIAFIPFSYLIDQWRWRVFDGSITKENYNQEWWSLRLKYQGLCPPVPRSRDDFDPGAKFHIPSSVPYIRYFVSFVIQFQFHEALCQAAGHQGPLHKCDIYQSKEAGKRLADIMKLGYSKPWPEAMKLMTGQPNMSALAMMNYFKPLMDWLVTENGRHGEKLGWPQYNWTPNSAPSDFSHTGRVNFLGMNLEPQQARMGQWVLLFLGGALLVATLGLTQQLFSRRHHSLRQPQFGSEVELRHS
Text: Experiment 1: Inhibitory effect on angiotensin I-induced constriction in isolated guinea pig ileum
According to the method of Goldberg et al (J. Pharmacol. Exp. Ther., vol. 204, No. 2, p. 271, 1977), the inhibitory effect on angiotensin I converting enzyme was indirectly examined as an antagonistic activity on angiotensin I-induced constriction in isolated guinea pig ileum preparation. Guinea pig ileum preparations, in the presence of 1 g load, were suspended in Magnus bath filled with Kreb's solution containing atropine and maintained at 37° C. by warming, and then bubbled with a mixed gas (95%O2 +5%CO2). Angiotensin I (10^-8 M)-induced constrictions were measured with a recorder through a force displacement transducer (Nippon Denki San-ei, 45169A). Inhibitory rates of the test compounds were indicated on a graph and the rate of 50% inhibition (IC50) was calculated.

[2] = system: angiotensin I-induced pressor response; assay: Effect on angiotensin I-induced pressor response in rats; type: in vivo, Wistar male rats; settings: 10 mg/kg, p.o.; for Inhibitory rate (%) of pressor response to angiotensin I at each hour: angiotensin I 300 ng/kg i.v., mean value±standard error
Description: Experiment 2: Effect on angiotensin I-induced pressor response in rats
Groups of 10 Wistar male rats weighing about 200 g were implanted with a catheter into the left carotid artery and femoral vein under ether anesthesia. More than 24 hours after operation, mean blood pressure was measured from the carotid artery with a pressure transducer (Nippon Denki San-ei, 142 type). Angiotensin I (300 ng/kg) was injected to the left femoral vein through catheter to induce pressor response. Then 10 mg/kg of the test compounds, suspended in 0.5% methylcellulose solution, were given orally. At every hour between 1 to 10 hours, and 24 hours after the administration, the pressor response was examined by the injection of angiotensin I. The inhibitory rate (%) against the pressor responses was determined and the results were summarized in Table 1. The values in the Table represent "mean value±standard error".

| Compound | pIC50 [1] | inhibitory action against the angiotensin I-induced pressor response, strength and duration vs CV-5975 ([2]; rats, comparison in words) | Inhibitory rate (%) of pressor response to angiotensin I at each hour ([2]; 1 hour) | Inhibitory rate (%) of pressor response to angiotensin I at each hour ([2]; 2 hours) | Inhibitory rate (%) of pressor response to angiotensin I at each hour ([2]; 3 hours) | Inhibitory rate (%) of pressor response to angiotensin I at each hour ([2]; 4 hours) | Inhibitory rate (%) of pressor response to angiotensin I at each hour ([2]; 5 hours) | Inhibitory rate (%) of pressor response to angiotensin I at each hour ([2]; 6 hours) | Inhibitory rate (%) of pressor response to angiotensin I at each hour ([2]; 7 hours) | Inhibitory rate (%) of pressor response to angiotensin I at each hour ([2]; 8 hours) | Inhibitory rate (%) of pressor response to angiotensin I at each hour ([2]; 9 hours) | Inhibitory rate (%) of pressor response to angiotensin I at each hour ([2]; 10 hours) | Inhibitory rate (%) of pressor response to angiotensin I at each hour ([2]; 24 hours) |
| --- | --- | --- | --- | --- | --- | --- | --- | --- | --- | --- | --- | --- | --- |
| O.O=C(O)CN1C(=O)C(N[C@@H](CSCCC2CCNCC2)C(=O)O)CCc2ccccc21 (stereo partly drawn) [Example 7, 3-[1(R)-carboxy-2-{2-(4-piperidyl)ethylthio}ethyl]amino-2-oxo-2,3,4,5-tetrahydro-1H-1-benzazepine-1-acetic acid monohydrate] | 8.80 | exhibits stronger inhibitory action against the angiotensin I-induced pressor response and more long-lasting effect than C-5975 | -96 ± 2% | -100 ± 0% | -94 ± 5% | -97 ± 3% | -100 ± 0% | -100 ± 0% | -100 ± 0% | -98 ± 2% | -100 ± 0% | -90 ± 6% | -77 ± 10% |
| O=C(O)CN1C(=O)[C@@H](N[C@@H](CCCCC2CCNCC2)C(=O)O)CSc2ccccc21 [CV-5975, 3(R)-[1(S)-carboxy-5-(4-piperidyl)pentyl]amino-4-oxo-2,3,4,5-tetrahydro-1,5-benzothiazepine-5-acetic acid, reference compound] | 8.46 |  | -95 ± 3% | -95 ± 3% | -89 ± 7% | -85 ± 7% | -82 ± 8% | -89 ± 6% | -86 ± 6% | -80 ± 7% | -84 ± 7% | -75 ± 9% | -45 ± 10% |
